Laboratory results as given in PubChem BioAssay (NCI).
“And” between values parts separate entries of the source, which are not always exact repeats. Equal values may be shown once.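 Compound exposure: 48 hours, 5 concentrations, 96-well plates. Here, GI50 denotes the concentration required for 50% inhibition of growth. TGI is the concentration that stops growth completely.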

Tests used:
Assay in all cases: NCI anticancer screen, dose series, 48 h
[1] = system: HCT-116 colon
[2] = system: HCT-15 colon
[3] = system: HL-60(TB) leukemia
[4] = system: MOLT-4 leukemia
[5] = system: NCI-H460 lung
[6] = system: OVCAR-8 ovarian
[7] = system: SF-295 CNS
[8] = system: SK-MEL-28 melanoma
[9] = system: SK-OV-3 ovarian
[10] = system: SN12C renal

Row | Structure (SMILES) | TGI [1] | TGI [2] | TGI [3] | TGI [4] | TGI [5] | TGI [6] | TGI [7] | TGI [8] | TGI [9] | TGI [10] | GI50 [1] | GI50 [2] | GI50 [3] | GI50 [4] | GI50 [5] | GI50 [6] | GI50 [7] | GI50 [8] | GI50 [9] | GI50 [10]
1 | CN(C)CCC(CCN(C)C)=NO | > 100 µM | > 100 µM | > 100 µM | > 100 µM | > 100 µM | > 100 µM | > 100 µM | > 100 µM | > 100 µM | > 100 µM | – | – | – | – | – | – | – | – | – | –
2 | COc1cc(/C=C2\CCC/C(=C\c3ccc(O)c(OC)c3)C2=O)ccc1O | 5 µM and 2.75 µM | 8.44 µM and 3.36 µM | 10.7 µM and 10.8 µM | 25.6 µM and 15.5 µM | 11.2 µM and 4.96 µM | 3.39 µM and 11.1 µM | 9.16 µM and 5.15 µM | 16.4 µM and 4.05 µM | 15.5 µM and 6.31 µM | 6.33 µM and 5.01 µM | 1.45 µM | 1.49 µM | 0.397 µM | 2.18 µM | 2.05 µM | 2.49 µM | 1.71 µM | 1.68 µM | 2.36 µM | 1.87 µM
3 | O=c1cnnc(N/N=C/c2ccccc2O)[nH]1 | > 100 µM | > 100 µM | 21.8 µM | > 100 µM | > 100 µM | > 100 µM | > 100 µM | 53.2 µM | > 100 µM | > 100 µM | 0.0337 µM | 0.539 µM | 2.91 µM | 0.973 µM | 1.56 µM | 1.81 µM | 3.11 µM | 4.54 µM | 3.6 µM | 4.21 µM
4 | CCCCCCn1c(SC)nc(COC(=O)NC)c1COC(=O)NC | 31.7 µM | > 100 µM | 56 µM | 53.8 µM | 37.3 µM | 34.3 µM | 35.1 µM | 32.4 µM | 33.2 µM | 31.3 µM | – | – | – | – | – | – | – | – | – | –
5 | CC1=C(C)C(=O)O[C@@H]([C@](C)(O)[C@]2(O)CC[C@@]3(O)[C@@H]4C[C@H](O)[C@]5(O)[C@@H](O)C=CC(=O)[C@]5(C)[C@H]4CC[C@]23C)C1 | > 100 µM | > 100 µM | 56.8 µM | > 100 µM | > 100 µM | > 100 µM | > 100 µM | > 100 µM | > 100 µM | > 100 µM | – | – | – | – | – | – | – | – | – | –
6 | COc1ccc(NC2=C(I)C(=O)c3ncccc3C2=O)cc1 | 2.51 µM | 2.42 µM | 4.34 µM | 5.79 µM | 2.24 µM | 5.79 µM | 3.16 µM | 3.3 µM | 2.72 µM | 2.27 µM | 0.494 µM | 0.516 µM | 1.94 µM | 2.06 µM | 0.647 µM | 1.84 µM | 1.67 µM | 1.66 µM | 1.36 µM | 1.05 µM
7 | CCc1cnn2c(NCc3ccc[n+]([O-])c3)cc(N3CCCC[C@H]3CCO)nc12 | > 100 µM | > 35 µM | < 0.01 µM and 0.0112 µM | < 0.0136 µM | > 44.8 µM | > 100 µM | 0.0962 µM and 0.0602 µM | 0.0297 µM and 0.0713 µM | > 100 µM | > 100 µM | < 0.01 µM and 0.00345 µM | 0.0351 µM and 0.0253 µM | < 0.01 µM and 0.00319 µM | < 0.01 µM and 0.00393 µM | < 0.01 µM and 0.00464 µM | < 0.01 µM and 0.00446 µM | < 0.0129 µM and 0.00732 µM | < 0.01 µM and 0.00493 µM | 0.0391 µM and 0.0338 µM | < 0.01 µM and 0.00406 µM
8 | N#Cc1c(NC(=O)c2ccc(F)cc2)sc2c1CCCC2 | > 25 µM | > 25 µM | > 25 µM | > 25 µM | > 25 µM | > 25 µM | > 25 µM | > 25 µM | > 25 µM | > 25 µM | > 25 µM | > 25 µM | > 25 µM | > 25 µM | > 25 µM | > 25 µM | > 25 µM | > 25 µM | > 25 µM | > 25 µM
9 | COc1ccc2c3c1OC1C(OC)(OC)C=C[C@@]4(Br)[C@@H](C2)N(CC2CC2)CC[C@]314 (stereo partly specified) | > 100 µM | > 100 µM | > 100 µM | > 100 µM | > 100 µM | > 100 µM | > 100 µM | > 100 µM | > 100 µM | > 100 µM | – | – | – | – | – | – | – | – | – | –
10 | CCOc1ccc(/C=C/c2cc(OC)c(OC)c(OC)c2)cc1 | 15.2 µM | > 22.1 µM | 1.46 µM | 44.6 µM | > 29.6 µM | > 100 µM | 16.9 µM | > 100 µM | > 30.2 µM | > 28 µM | – | – | – | – | – | – | – | – | – | –
11 | N#CC(C#N)=C1CCOc2ccc(F)cc21 | 21 µM | 30.3 µM | > 100 µM | 29.7 µM | 30.4 µM | 43.7 µM | 41 µM | > 100 µM | 30.7 µM | 40.1 µM | 8.86 µM | 15.5 µM | 66.5 µM | 16.2 µM | 14.2 µM | 19 µM | 16.9 µM | > 100 µM | 16.3 µM | 19.8 µM
12 | COc1cc(-c2nc3sc(C)cn3c2/C=C2\C(=O)Nc3ccccc32)c(Br)c(OC)c1OC | > 100 µM | > 100 µM | > 100 µM | > 100 µM | 94.8 µM | > 100 µM | 40.7 µM | > 100 µM | 73.8 µM | > 100 µM | 26 µM | 29.1 µM | 29.2 µM | 36.4 µM | 30.5 µM | > 100 µM | 15.6 µM | 39.1 µM | 28.9 µM | 45.4 µM
13 | NS(=O)(=O)c1ccc(NC(=O)Cc2nc3ccccc3s2)cc1 | 31 µM | 32.3 µM | 45.7 µM | 58.6 µM | 35.6 µM | 34.9 µM | 33.2 µM | 32 µM | 40.5 µM | 30.9 µM | – | – | – | – | – | – | – | – | – | –
14 | CCCCNS(=O)(=O)c1n[nH]c(=O)[nH]c1=O | > 100 µM | > 100 µM | > 100 µM | > 100 µM | > 100 µM | > 100 µM | > 100 µM | > 100 µM | > 100 µM | > 100 µM | – | – | – | – | – | – | – | – | – | –
15 | COc1ccc(CCN(CC(=O)N(CC(N)=O)C2CCC[C@@H]2OCc2ccccc2)C(=O)CN(C(=O)CN(CCc2ccc(Cl)cc2)C(=O)CN(C(=O)CN(C)Cc2ccccc2F)[C@H](C)C2CCCCC2)[C@H](C)C2CCCCC2)cc1OC (stereo partly specified) | > 50 µM | > 50 µM | 3.24 µM | 2.46 µM | > 50 µM | > 50 µM | 3.49 µM | > 50 µM | > 50 µM | > 50 µM | 1.6 µM | 2.77 µM | 1.21 µM | 0.689 µM | 1.94 µM | 2.82 µM | 1.16 µM | 1.89 µM | 2.5 µM | 2.13 µM
16 | O=C(OCCCl)C1OC(n2cc(F)c(=O)[nH]c2=O)CC1O (stereo unspecified) | > 100 µM | > 100 µM | > 100 µM | > 100 µM | > 100 µM | > 100 µM | > 100 µM | > 100 µM | > 100 µM | > 100 µM | – | – | – | – | – | – | – | – | – | –
17 | CC1=NN(C(=O)Nc2ccc(Cl)cc2)C(=O)C2CCC(=O)N12 (stereo unspecified) | > 100 µM | 44.2 µM | > 100 µM | > 100 µM | > 100 µM | > 100 µM | > 100 µM | > 100 µM | > 100 µM | > 100 µM | – | – | – | – | – | – | – | – | – | –
18 | Cc1ccc(NC(=O)CC/C(CC(=O)C(C)(C)C)=N\NC(=O)C[n+]2ccccc2)cc1C | > 100 µM | > 100 µM | > 100 µM | > 100 µM | > 100 µM | > 100 µM | > 100 µM | > 100 µM | > 100 µM | > 100 µM | – | – | – | – | – | – | – | – | – | –
19 | NC(=S)N/N=C1\c2ccccc2-c2c(F)c(F)c(F)c(F)c21 | 3.15 µM | 4.61 µM | 16 µM | 5.31 µM | 24.7 µM | 3.68 µM | 57.7 µM | 8.87 µM | 36.5 µM | 20 µM | 1.67 µM | 2.05 µM | 3.58 µM | 1.8 µM | 5.65 µM | 1.84 µM | 12.4 µM | 2.99 µM | 14.1 µM | 7.31 µM
20 | C/C(=N\OCC(O)CNCCSCc1ccccc1)c1ccccc1Cl (stereo unspecified) | 54.7 µM | 41.1 µM | 50.1 µM | > 100 µM | 52.3 µM | 32 µM | 36.2 µM | 37.5 µM | 35.4 µM | 34.8 µM | – | – | – | – | – | – | – | – | – | –
21 | CC1(C)N=C(N)N=C(N)N1c1ccc(Cl)cc1 | > 100 µM | > 100 µM | > 100 µM | > 100 µM | > 100 µM | > 100 µM | 9.94 µM | > 100 µM | > 100 µM | > 100 µM | 0.627 µM | 18.7 µM | > 100 µM | 62.3 µM | 2.82 µM | 2.17 µM | 2.9 µM | 53.5 µM | 43 µM | 7.25 µM
22 | COC(=O)c1cc2oc(/C=C3/SC(=S)N(N)C3=O)cc2n1Cc1ccccc1 | 18.9 µM | > 29.9 µM | > 100 µM | > 100 µM | 11.6 µM | 22.7 µM | 6.02 µM | > 30.1 µM | 20 µM | > 43.3 µM | 5.73 µM | 7.65 µM | > 15.7 µM | 4.23 µM | 3.02 µM | 3.24 µM | 1.76 µM | 7.48 µM | 4.25 µM | 12 µM
23 | CC(C)(C)c1cc(NC(=O)Nc2ccc(-c3cn4c(n3)sc3cc(OCCN5CCOCC5)ccc34)cc2)no1 | 19 µM and 11.1 µM and > 10 µM | > 91.9 µM and 14.8 µM and > 10 µM | > 100 µM and 24.8 µM and > 10 µM | > 100 µM and 23.6 µM and > 10 µM | 16.1 µM and 10.4 µM and > 10 µM | 12.3 µM and 11.8 µM and > 10 µM | 18.1 µM and 2.55 µM and > 10 µM | 17.5 µM and 12 µM and > 10 µM | 22.4 µM and 19.2 µM and > 10 µM | 24.9 µM and 13.2 µM and > 10 µM | 4.23 µM and 0.576 µM and 5.19 µM | – | – | – | 3.72 µM and 0.657 µM and 4.56 µM | 1.14 µM and 0.544 µM and 1.51 µM | 1.01 µM and 0.404 µM and 1.42 µM | 4.23 µM and 2.04 µM and > 10 µM | 7.33 µM and 5.07 µM and > 10 µM | –
